Data set [1] relates to A375 (melanoma cells). Briefly: BrdU assay. The class given is cell-based, human. As to conditions: for IC50: Homo sapiens, A-375, A375, BrdU, 24 h, read-out: IC50 ± SD, antiproliferative activity. As to the method: (§1) Since the inhibition of human DNA topoisomerase II should result in decreased proliferation of cancer cells, compounds 1-3 were tested using BrdU assay against a panel of cancer cell lines, including MCF-7 (estrogen-dependent human breast cancer cells), MDA-MB-231 (estrogen-independent human breast cancer cells), SCC-25 (squamous cell carcinoma of the tongue), FaDu (squamous cell carcinoma of the pharynx), A549 (human lung carcinoma), AGS (human gastric adenocarcinoma), LS-180, HT-29 (colon cancer cell lines), T98G (glioblastoma cells), and A375 (melanoma cells). Human normal skin fibroblasts (CRL-2072) were also used as a reference cell line. The BrdU assay allows quantification of cell proliferation since it measures incorporation of thymidine analogue (BrdU) during DNA replication. […] However, although the antiproliferative effect caused by 3 was mostly weaker (except for A549 and A375) than observed for 1, but the former compound was also characterised by lower toxicity against human normal cells. It results in selectivity index approaching 125 and 57, when it comes to lung cancer (A549) and melanoma cells (A375), respectively.
(§2) Cytotoxicity of the synthesised compounds were examined against a panel of the cancer cell lines, MCF-7 (estrogen-dependent human breast cancer cells), MDA-MB-231 (oestrogen-independent human breast cancer cells), SCC- 25 (squamous cell carcinoma of the tongue), FaDu (squamous cell carcinoma of the pharynx), A- 549 (human lung carcinoma), AGS (human gastric adenocarcinoma), LS-180, HT-29 (colon cancer cell lines), T98G (glioblastoma cells), A375 (melanoma cells). Human embryonic kidney (HEK-293) cells and human normal skin fibroblasts (CRL-2072) were used as reference cell lines. The investigated cell lines were obtained from American Type Culture Collection (ATCC; Manassas, VA, USA). A375, MCF-7, MDA-MB-231, T98G cells were cultured in Dulbecco’s Modified Eagle’s Medium (DMEM) (Sigma Aldrich, St. Louis, MO, USA) supplemented with 10% heat inactivated foetal bovine serum (FBS), penicillin (100 U/mL), and streptomycin (100 μg/mL). SCC-25 cells were cultured in 1:1 mixture of Dulbecco’s modified Eagle’s medium and Ham’s F12 Medium (Sigma Aldrich, St. Louis, MO, USA) supplemented with 400 ng/ml hydrocortisone, 10% FBS, penicillin (100 U/mL), and streptomycin (100 μg/mL). A549 and AGS cells were maintained in F-12K Medium (Sigma Aldrich, St. Louis, MO, USA). LS-180 and FaDu cells were cultured in Eagle’s Minimum Essential Medium. HT-29 cells were maintained in McCoy’s 5 A Medium (Sigma Aldrich, St. Louis, MO, USA) supplemented with 10%FBS, penicillin (100 U/mL), and streptomycin (100 μg/mL). All the cells were maintained at 37 °C in a humidified atmosphere of 5% CO2.
(§3) The BrdU assay was performed to determine the effect of synthesised compounds on the proliferation of cancer cells. BrdU assay indicates the rate of incorporation of 5′-bromo-2′-deoxy-uridine (BrdU) during DNA biosynthesis. In brief, cells were plated in 96-well plates (NUNC, Roskilde, Denmark) at the density of 3 × 10^4 cells/mL. […] Cell proliferation was examined after 24 h and 48 h of incubation according to the manufacturer’s protocol (Cell Proliferation ELISA BrdU, Roche Diagnostics GmbH, Penzberg,)Germany).

Data set [2] concerns the target T1, human DNA topoisomerase IIα (Homo sapiens, UniProt P11388).
T1 construct: purchased Inspiralis Ltd, Norwich, UK
Briefly: Human topoisomerase IIα relaxation assay. The class given is biochemical. To be noted: agarose gel, densitometry; read-out: IC50 ± SD, relaxation activity of human DNA topoisomerase IIα.
Experimental: As relaxation of supercoiled DNA (scDNA) is one of numerous functions of topoisomerase IIα, so the appearance/disappearance of relaxed DNA bands during agarose gel electrophoresis can be used to identify compounds that inhibit the enzyme.
Briefly, the increased concentrations of the compounds were mixed with the reaction mixture, incubated according to the protocol and, after reaction termination, the samples were analysed by electrophoresis using 1% agarose gel containing 0.5 mg/mL of ethidium bromide in Tris-Acetate-EDTA (TAE) buffer. Visualisation of the bands was performed using an enhanced chemiluminescence system (Syngene G:BOX Chemi XT4, Cambridge, UK). For the quantitative determination of topoisomerase II inhibition, images were densitometrically scanned.
The inhibition of topoisomerase II was calculate from the equation: % Inhibition=Intensity of compound−treated DNA/Intensity of vehicle−treated control DNA×100

Data set [3] relates to SCC-25 (squamous cell carcinoma of the tongue). The data set is described as follows: BrdU assay. The class given is cell-based. To be noted: Homo sapiens; SCC-25, BrdU, 24 h; read-out: IC50 ± SD, antiproliferative activity. As to the method: as §1, §2, §3
(In general: Incorporation of labelled thymidine or its analogues reports DNA synthesis.)

In data set [4] the test system is MCF-7 (estrogen-dependent human breast cancer cells). Briefly: BrdU assay. The data set is classed as cell-based. To be noted: MCF7, MCF-7, BrdU, 24 h, read-out: IC50 ± SD, antiproliferative activity. As to the method: as §1, §2, §3
Data set [5] deals with Human normal skin fibroblasts (CRL-2072). Briefly: BrdU assay. The data set is classed as cell-based. To be noted: Skin fibroblast, 24 h, read-out: IC50 ± SD, antiproliferative activity. As for the experimental part:
as §1, §2, §3

The subject of data set [6] is A549 (human lung carcinoma). The data set is described as follows: BrdU assay. The data set is classed as cell-based. To be noted: for IC50: Homo sapiens, A549, BrdU, 24 h, read-out: IC50 ± SD, antiproliferative activity. As to the method:
as §1, §2, §3

Data set [7] deals with MDA-MB-231 (estrogen-independent human breast cancer cells). The data set is described as follows: BrdU assay. The class given is cell-based. As to conditions: MDA-MB-231, BrdU, 24 h, read-out: IC50 ± SD, antiproliferative activity. As for the experimental part: as §1, §2, §3
The subject of data set [8] is HT-29 (colon cancer cell line). Briefly: BrdU assay. The data set is classed as cell-based. To be noted: Homo sapiens; HT-29, BrdU, 24 h; read-out: IC50 ± SD, antiproliferative activity. As for the experimental part: as §1, §2, §3
The subject of data set [9] is T98G (glioblastoma cells). Briefly: BrdU assay. The data set is classed as cell-based. To be noted: Homo sapiens, 24 h, read-out: IC50 ± SD, antiproliferative activity. As to the method:
as §1, §2, §3

For data set [10], the system named is FaDu (squamous cell carcinoma of the pharynx). The data set is described as follows: BrdU assay. The class given is cell-based. As to conditions: Homo sapiens, 24 h, read-out: IC50 ± SD, antiproliferative activity. As to the method:
as §1, §2, §3

The test system of data set [11] is LS180 (colon cancer cell line). Briefly: BrdU assay. The class given is cell-based. As to conditions: Homo sapiens, 24 h, read-out: IC50 ± SD, antiproliferative activity. As to the method: as §1, §2, §3
Data set [12] deals with AGS (human gastric adenocarcinoma). The data set is described as follows: BrdU assay. The class given is cell-based. To be noted: 24 h, read-out: IC50 ± SD, antiproliferative activity. As to the method: as §1, §2, §3
Data set [13] concerns the target T2, indoleamine-2,3-dioxygenase 1 (IDO 1) (Homo sapiens, UniProt P14902).
T2 construct: purchased BPS Bioscience, Inc. (San Diego, CA, USA)
Briefly: Universal IDO1/IDO2/TDO Inhibitor Screening Assay Kit. As to conditions: fixed dose of 50 µg/ml; read-out: IDO 1 inhibition (%) ± SD. The class given is biochemical.
Experimental: Inhibitory effects of the investigated compounds were determined using Universal IDO1/IDO2/TDO Inhibitor Screening Assay Kit from BPS Bioscience, Inc. (San Diego, CA, USA). This colorimetric assay is based on the measurement of the ability of IDO1, IDO2 and TDO to convert L-tryptophan into N-formylkynurenine (NFK). The experiments were performed according to the manufacturer’s guidelines. The final concentration of the compounds in the reaction mixture was 50 µg/mL. The amount of NFK was measured spectrophotometrically at 320 nm using Epoch BioTek microplate reader (BioTek Instruments, Inc., Winooski, VT, USA). The samples were run in triplicate and the results were expressed as mean ± SD.

The source of these data is PMC9648375, “Identification of the first-in-class dual inhibitors of human DNA topoisomerase IIα and indoleamine-2,3-dioxygenase 1 (IDO 1) with strong anticancer properties” (Journal of Enzyme Inhibition and Medicinal Chemistry, 2022).

Converted amounts (≈) assume the structure as drawn.

T2 sequence (P14902 whole entry): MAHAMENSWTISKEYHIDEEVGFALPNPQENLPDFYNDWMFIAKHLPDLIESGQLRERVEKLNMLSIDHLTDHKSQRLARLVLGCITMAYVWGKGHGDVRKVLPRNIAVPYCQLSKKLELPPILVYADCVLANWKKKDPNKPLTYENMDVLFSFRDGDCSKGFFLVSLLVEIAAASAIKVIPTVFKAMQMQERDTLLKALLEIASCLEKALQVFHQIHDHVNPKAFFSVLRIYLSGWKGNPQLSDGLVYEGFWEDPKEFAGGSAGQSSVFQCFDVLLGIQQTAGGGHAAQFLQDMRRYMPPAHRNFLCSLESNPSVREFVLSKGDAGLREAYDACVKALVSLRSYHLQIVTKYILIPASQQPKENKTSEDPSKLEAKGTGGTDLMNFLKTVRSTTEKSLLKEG
T1 sequence (P11388 whole entry): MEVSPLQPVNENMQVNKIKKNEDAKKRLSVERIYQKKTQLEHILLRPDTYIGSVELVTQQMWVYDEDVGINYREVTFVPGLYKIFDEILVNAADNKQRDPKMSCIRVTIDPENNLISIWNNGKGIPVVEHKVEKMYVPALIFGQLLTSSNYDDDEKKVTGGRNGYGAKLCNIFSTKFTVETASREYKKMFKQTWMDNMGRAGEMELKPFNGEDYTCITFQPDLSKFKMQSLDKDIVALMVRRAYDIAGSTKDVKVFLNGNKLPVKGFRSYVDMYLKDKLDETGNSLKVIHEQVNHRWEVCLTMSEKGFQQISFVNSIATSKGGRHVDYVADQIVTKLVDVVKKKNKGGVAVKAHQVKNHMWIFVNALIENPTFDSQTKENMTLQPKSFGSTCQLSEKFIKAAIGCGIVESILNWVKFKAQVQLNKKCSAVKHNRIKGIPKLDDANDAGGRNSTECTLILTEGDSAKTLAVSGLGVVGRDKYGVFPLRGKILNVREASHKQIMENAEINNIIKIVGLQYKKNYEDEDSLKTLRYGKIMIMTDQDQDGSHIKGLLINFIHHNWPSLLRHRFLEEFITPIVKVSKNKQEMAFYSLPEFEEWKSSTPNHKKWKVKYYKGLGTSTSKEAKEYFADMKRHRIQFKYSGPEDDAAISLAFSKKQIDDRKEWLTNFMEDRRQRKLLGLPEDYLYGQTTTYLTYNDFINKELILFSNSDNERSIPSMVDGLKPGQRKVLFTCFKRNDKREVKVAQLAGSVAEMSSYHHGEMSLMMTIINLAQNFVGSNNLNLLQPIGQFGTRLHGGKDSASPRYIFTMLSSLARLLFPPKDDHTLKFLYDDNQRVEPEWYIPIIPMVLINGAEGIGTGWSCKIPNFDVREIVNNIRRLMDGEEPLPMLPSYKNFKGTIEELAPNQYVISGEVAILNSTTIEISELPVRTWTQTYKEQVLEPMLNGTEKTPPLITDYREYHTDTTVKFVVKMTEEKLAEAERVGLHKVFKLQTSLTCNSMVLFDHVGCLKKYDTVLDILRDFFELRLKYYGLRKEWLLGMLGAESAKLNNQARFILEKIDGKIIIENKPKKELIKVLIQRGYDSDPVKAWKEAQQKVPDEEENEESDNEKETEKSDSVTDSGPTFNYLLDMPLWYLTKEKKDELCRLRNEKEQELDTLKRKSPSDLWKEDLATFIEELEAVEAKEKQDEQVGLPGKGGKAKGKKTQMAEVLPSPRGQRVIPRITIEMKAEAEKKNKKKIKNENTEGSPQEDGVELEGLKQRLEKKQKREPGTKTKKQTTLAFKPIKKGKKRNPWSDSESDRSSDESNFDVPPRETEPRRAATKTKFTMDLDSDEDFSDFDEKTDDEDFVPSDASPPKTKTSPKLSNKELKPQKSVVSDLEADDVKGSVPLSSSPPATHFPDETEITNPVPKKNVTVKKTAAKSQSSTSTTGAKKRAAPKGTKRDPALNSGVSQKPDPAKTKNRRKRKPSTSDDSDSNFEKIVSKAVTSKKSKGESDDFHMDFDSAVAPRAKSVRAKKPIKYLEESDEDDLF

For `CC(C)c1cccc(C(C)C)c1NC(=S)NNC(=O)Cc1cccc2ccccc12` [Compound 1, 4-(2,6-Diisopropylphenyl)-1-[(naphth-1-yl)acetyl]thiosemicarbazide], the melting point (usually the temperature, or range, at which the solid turns liquid) was in the range of 140 to 142 °C. In addition, the IC50 (usually the concentration that inhibits the measured activity by half) in data set [1] came to 0.96 ± 0.03 µg/mL (≈ 2.29 µM). Besides, the IC50 in [2] came out at 71 ± 4.81 µM. The IC50 in data set [3] was 1.1 ± 0.02 µg/mL (≈ 2.62 µM). Besides, in data set [4], the IC50 is 1.19 ± 0.04 µg/mL (≈ 2.84 µM). The IC50 in data set [5] is 22.4 ± 0.94 µg/mL (≈ 53.3 µM). For the same compound, in [6], the IC50 is 0.23 ± 0.01 µg/mL (≈ 0.548 µM). The IC50 in data set [7] came to 26.3 ± 0.99 µg/mL (≈ 62.7 µM). Moreover, in data set [8], the IC50 is 0.44 ± 0.03 µg/mL (≈ 1.05 µM). The IC50 in data set [9] was 0.72 ± 0.02 µg/mL (≈ 1.72 µM). The IC50 in [10] came out at 1.04 ± 0.04 µg/mL (≈ 2.48 µM). Moreover, the IC50 in data set [11] worked out at 4.68 ± 0.17 µg/mL (≈ 11.2 µM). Further, the IC50 in data set [12] was determined as 0.51 ± 0.02 µg/mL (≈ 1.22 µM). Also, the inhibition (in general, the share of the control response that was lost under treatment) at 50 µg/mL in data set [13] turned out to be 91.4 ± 1.82%.

For the compound `O=C(Cc1cccc2ccccc12)NNC(=S)Nc1ccc(N=Nc2ccccc2)cc1` [Compound 2, 4-(4-Phenylazophenyl)-1-[(naphth-1-yl)acetyl]thiosemicarbazide], the melting point lay within 178 to 180 °C. For the same compound, the concentration for half-maximal inhibition (IC50) in data set [1] was 0.85 ± 0.04 µg/mL (≈ 1.93 µM). The IC50 in [2] came out at 43.1 ± 2.27 µM. Moreover, the IC50 in data set [3] stood at 1.06 ± 0.04 µg/mL (≈ 2.41 µM). Besides, the IC50 in data set [4] came out at 33.2 ± 1.05 µg/mL (≈ 75.4 µM). Moreover, in [5], the IC50 was found to be 24.2 ± 1.4 µg/mL (≈ 55 µM). The IC50 in [6] came out at 0.83 ± 0.03 µg/mL (≈ 1.89 µM). Moreover, the IC50 in data set [7] was more than 100 µg/mL. For the same compound, the IC50 in data set [8] was found to be 9.47 ± 0.51 µg/mL (≈ 21.5 µM). For the same compound, in data set [9], the IC50 is 6.19 ± 1.83 µg/mL (≈ 14.1 µM). Besides, the IC50 in data set [10] came to 7.11 ± 0.34 µg/mL (≈ 16.2 µM). The IC50 in data set [11] is 10.4 ± 0.77 µg/mL (≈ 23.6 µM). In addition, the IC50 in data set [12] was 62.3 ± 3.04 µg/mL (≈ 142 µM). For the same compound, the inhibition at 50 µg/mL in data set [13] was 41.4 ± 2.47%.

In the case of `O=C(NNC(=S)Nc1ccc(N=Nc2ccccc2)cc1)c1ccccc1[N+](=O)[O-]` [Compound 3, 4-(4-Phenylazophenyl)-1-(2-nitrobenzoyl)thiosemicarbazide], the melting point is 168 to 170 °C. In data set [1] (BrdU assay, melanoma cells (A375)), the “selectivity index, A375 vs. human normal skin fibroblasts” value is approximately 57. For the same compound, in data set [1], the IC50 amounted to 0.56 ± 0.03 µg/mL (≈ 1.33 µM). Moreover, in data set [2], the IC50 is 76.8 ± 4.85 µM. In addition, the IC50 in [3] stood at 4.89 ± 0.22 µg/mL (≈ 11.6 µM). Further, the IC50 in [4] was determined as 32.5 ± 1.98 µg/mL (≈ 77.4 µM). Besides, in data set [5], the IC50 amounted to 32.1 ± 1.75 µg/mL (≈ 76.4 µM). In addition, in [6] (BrdU assay, lung cancer (A549)), the “selectivity index, A549 vs. human normal skin fibroblasts” value is given as approximately 125. The IC50 in data set [6] was 0.25 ± 0.01 µg/mL (≈ 0.595 µM). Further, in data set [7], the IC50 was more than 100 µg/mL. In data set [8], the IC50 worked out at 13.1 ± 0.81 µg/mL (≈ 31.3 µM). Further, in [9], the IC50 came to 6.28 ± 0.37 µg/mL (≈ 14.9 µM). The IC50 in data set [10] came to 9.04 ± 0.39 µg/mL (≈ 21.5 µM). Further, in data set [11], the IC50 was 10.6 ± 0.24 µg/mL (≈ 25.1 µM). The IC50 in [12] was 43.9 ± 1.94 µg/mL (≈ 104 µM). For the same compound, the inhibition at 50 µg/mL in [13] was determined as 21.4 ± 1.05%.

For the compound `COc1cc([C@@H]2c3cc4c(cc3[C@@H](O[C@@H]3O[C@@H]5CO[C@@H](C)O[C@H]5[C@H](O)[C@H]3O)[C@H]3COC(=O)[C@H]23)OCO4)cc(OC)c1O` [Etoposide, etoposide, reference compound], the IC50 was 9.18 ± 0.15 µg/mL (≈ 15.6 µM) in data set [1]; 21.2 ± 0.74 µg/mL (≈ 36 µM) in [3]; 54.9 ± 1.82 µg/mL (≈ 93.3 µM) in [4]; 55.7 ± 3.01 µg/mL (≈ 94.6 µM) in data set [5]; 2.6 ± 0.11 µg/mL (≈ 4.42 µM) in [6]; more than 100 µg/mL in data set [7]. Moreover, the IC50 in data set [8] is 19.9 ± 0.25 µg/mL (≈ 33.9 µM); in [9], 29.5 ± 0.93 µg/mL (≈ 50.1 µM); in data set [10], 12.8 ± 0.27 µg/mL (≈ 21.8 µM); in data set [11], more than 100 µg/mL; in [12], 46 ± 2.61 µg/mL (≈ 78.1 µM).
